The record followed here is PMC5691699, “Processing ‘Ataulfo’ Mango into Juice Preserves the Bioavailability and Antioxidant Capacity of Its Phenolic Compounds” (Nutrients, 2017).

Where two headings read alike, the source gives them in different places.

The nature of series [1]: Urinary excretion (0–24 h) of phenolic compounds after 'Ataulfo' mango flesh or juice, HPLC-ECD. The following applies: for detection in urine: after mango flesh and juice consumption, 0–24 h; for urinary excretion, juice group versus flesh group: at 0–4 and 4–8 h, normalized to creatinine.
From the text: (§1) Twelve middle-aged healthy men aged 22 to 34 years were recruited from CIAD. […] All subjects were free of diagnosed heart disease, homeostatic disorders, gastrointestinal disease, or other medical conditions; they were not taking any medication or any vitamin/mineral supplement.
(§2) After baseline (time 0), blood and urine were collected, subjects were randomly assigned to consume mango flesh slices or juice in a 10-min period, in random order separated by a 3 day wash-out period. […] Blood was collected in a vacutainer tube containing EDTA as anticoagulant. Plasma was recovered, and 0.5 mL aliquots were immediately acidified using 20 µL of 4 M HCl. Acidified plasma and urine samples were stored at −80 °C until analysis. During blood collection, subjects were only allowed water, other foods and beverages were not allowed. They were given a hamburger without vegetables and ketchup for lunch. For dinner, they were allowed to eat a meal, but with the same restrictions as those of the wash-out period.
(§3) Phenolics in urine were quantified according to the method of McKay et al. [20]. Urine (200 µL) was dissolved in 800 µL of buffer (0.1 M sodium acetate, pH 5) and 30 µL of β-glucuronidase/sulfatase (98,000 kU/L β-glucuronidase and 2400 kU/L sulfatase), and incubated at 37 °C for 60 min. After incubation, 10 µL of 100 µg/mL internal standard (2′,3′,4′-trihydroxyacetophenone) and 200 µL glacial acetic acid were added, and the mixture was briefly vortexed. After the addition of approximately 1 g of NaCl, phenolics were extracted twice with 3 mL of ethyl acetate. The combined ethyl acetate fractions were dried under nitrogen gas and reconstituted in 1 mL of the aqueous HPLC mobile phase, filtered through a 0.22-µm Millex syringe-driven filter (Millipore Corporation, Bedford, MA, USA), and injected (50 µL) onto the HPLC-ECD system. […] The intraday CV for standards spiked into urine was <7%. Urinary phenolics were normalized to creatinine concentration, which was measured with a commercial kit.
Series [2] can be described thus: clinical. As to conditions: for AUC/Dose: dose-adjusted AUC 0 to 6 h, n = 12. The text has this:
Phenolics in plasma were quantified according to the method of Chen, Milbury, Lapsley, and Blumberg. […] Subsequently, phenolics were extracted with acetonitrile. After centrifugation, the supernatant was removed, dried with nitrogen gas, and reconstituted in the aqueous HPLC mobile phase, filtered using Ultrafree Durapore Centrifugal filter devices (0.22, Merck Millipore, Billerica, MA, USA), and injected into the HPLC- ECD system, using previously optimized chromatographic conditions. The mobile phases were 75 mM citric acid and 25 mM ammonium acetate in 90% water/10% acetonitrile (A), and 75 mM citric acid and 25 mM ammonium acetate in 50% water/50% acetonitrile (B).
Results are expressed as mean ± standard deviation (SD). The maximum concentration (Cmax) in plasma and the time to reach Cmax (Tmax) were visually identified. The area under the concentration-time curve (AUC) of plasma phenolics was calculated using the linear trapezoidal integration equation [24]. The differences in Cmax, Tmax, and AUC of phenolics between mango flesh and juice treatments were examined using an analysis of covariance, with time 0 values as the covariant, followed by the Tukey-Kramer multi-comparison test. The Number Cruncher Statistical System version 6.0 software (NCSS, NCSS LLC, Kaysville, UT, USA) was used to perform all statistical analyses.

The conditions of series [3]: in vivo.
From the text: as §1, §2, §3
The mark [4] stands for this setting: after mango flesh and juice consumption, 0–6 h.
Where [5] appears, read: male, human, plasma, oral, 500 g, AUC, plasma, time 0 to 6 h, after 500 g mango flesh, n = 12, mean ± SD.
The mark [6] stands for this setting: male, human, plasma, oral, 500 g, Cmax, plasma, after 500 g mango flesh, healthy men, n = 12, mean ± SD.
Where [7] appears, read: male, human, plasma, oral, 500 g, Tmax, plasma, after 500 g mango flesh, healthy men, n = 12, mean ± SD.
The mark [8] stands for this setting: male, human, plasma, oral, 721 g, AUC, plasma, time 0 to 6 h, after 721 g mango juice, n = 12, mean ± SD.
Where [9] appears, read: male, human, plasma, oral, 721 g, Cmax, plasma, after 721 g mango juice, healthy men, n = 12, mean ± SD.
The mark [10] stands for this setting: male, human, plasma, oral, 721 g, Tmax, plasma, after 721 g mango juice, healthy men, n = 12, mean ± SD.
The mark [11] stands for this setting: plasma, after 500 g mango flesh.
[12] abbreviates: plasma, after 721 g mango juice.
The mark [13] stands for this setting: plasma, after 500 g mango flesh, healthy men, n = 12, mean ± SD.
The mark [14] stands for this setting: plasma, after 721 g mango juice, healthy men, n = 12, mean ± SD.

With `Oc1cccc(O)c1O` [Pyrogallol, pyrogallol], in series [1], the detection in urine result was “found in urine”.

Turning to `COc1cc(/C=C/C(=O)O)cc(OC)c1O` [sinapic acid], in series [2] (in vivo), the detection in plasma entry is “not in plasma”. Further, in series [3] (human), the “urinary AUC/dose excretion” value is recorded as “Higher”. For the same molecule, the detection in urine result in series [3] is given as “detected in urine”.

As to `O=C(/C=C/c1ccc(O)c(O)c1)O[C@@H]1C[C@](O)(C(=O)O)C[C@@H](O)[C@H]1O` [Chlorogenic acid, chlorogenic acid], in series [2] (setting [4]), the detection in plasma result is recorded as “detected in plasma”. Further, the area under the curve (AUC) in series [2] (setting [5]) was 209 ± 24.5 ng·h/mL; in series [2] (setting [8]) it was 367 ± 131 ng·h/mL. The Cmax in series [2] (setting [6]) amounted to 49.7 ± 7.3 ng/mL; in series [2] (setting [9]), 109.7 ± 0.26 ng/mL. The Tmax was determined as 3.5 ± 1.4 h in series [2] (setting [7]) and 2.5 ± 1.8 h in series [2] (setting [10]). Besides, the “higher absorption from mango juice” value in series [2] (mango juice compared with flesh) came to 62%. Besides, the values for the AUC/Dose in series [2] (setting [11]) and in series [2] (setting [12]) were 11.5 ± 1.78 (ng h/mL)/mg and 50.12 ± 15.5 (ng h/mL)/mg, respectively.

Turning to `O=C(O)/C=C/c1ccc(O)cc1` [p-coumaric acid], in series [1], the detection in urine result was “detected in urine” and the “urinary excretion, juice group versus flesh group” value is recorded as “significantly higher”.

For `COc1cc(/C=C/C(=O)O)ccc1O` [Ferulic acid, ferulic acid], the detection in plasma result in series [2] (setting [4]) was “detected in plasma”. For the same molecule, the maximum concentration (Cmax) in series [2] (setting [13]) was found to be 16.5 ± 3.9 ng/mL; in series [2] (setting [14]), 32.7 ± 10.9 ng/mL. Moreover, the time of peak concentration (Tmax) in series [2] (setting [13]) is listed as 2.8 ± 2.1 h; in series [2] (setting [14]) it was 2.3 ± 1.5 h. Also, the AUC/Dose is reported as 31.0 ± 9.63 (ng h/mL)/mg in series [2] (setting [11]) and 83.8 ± 30.2 (ng h/mL)/mg in series [2] (setting [12]). Moreover, the AUC in series [2] (plasma, time 0 to 6 h, after 500 g mango flesh, n = 12, mean ± SD) turned out to be 60.2 ± 22.7 ng·h/mL; in series [2] (plasma, time 0 to 6 h, after 721 g mango juice, n = 12, mean ± SD) it was 133.4 ± 47.7 ng·h/mL. In addition, in series [1], the detection in urine entry is listed as “detected in urine”. Moreover, the “urinary excretion, juice group versus flesh group” value in series [1] is recorded as “significantly higher”.

For `COc1cc(C(=O)O)ccc1O` [Vanillic acid, vanillic acid], the detection in plasma result in series [2] (setting [4]) is recorded as “not in plasma”. The detection in urine entry in series [1] was “detected in urine”. In series [1] (compared with the other urinary phenolics, values higher in the juice group), the “urinary AUC/dose excretion” value is “Higher”.

As to `O=C(O)c1cc(O)c(O)c(O)c1` [Gallic acid, gallic acid], the area under the curve (AUC) in series [2] (male, human, in vivo) was 38.5 ± 14.5 ng·h/mL; in series [2] (male, human, in vivo, AUC) it was 36.9 ± 24.3 ng·h/mL. In addition, the Cmax in series [2] (male, human, in vivo) is 7.9 ± 4.7 ng/mL; in series [2] (male, human, in vivo, Cmax), 8.7 ± 1.7 ng/mL. Besides, the Tmax in series [2] (male, human, in vivo, Tmax, plasma, after 500 g mango flesh, healthy men, n = 12, mean ± SD) was found to be 4.4 ± 1.1 h; in series [2] (male, human, in vivo, Tmax, plasma, after 721 g mango juice, healthy men, n = 12, mean ± SD) it was 3.5 ± 1 h.

For the molecule `O=C(O)c1cc(O)ccc1O` [Gentisic acid, gentisic acid], the detection in plasma entry in series [2] (setting [4]) is reported as “detected in plasma”. Moreover, the AUC in series [2] (male, human, in vivo) is 50.9 ± 11.0 ng·h/mL; in series [2] (male, human, in vivo, AUC), 53.1 ± 8.3 ng·h/mL. Also, the Cmax amounted to 12.2 ± 0.2 ng/mL in series [2] (male, human, in vivo) and 11.8 ± 2.1 ng/mL in series [2] (male, human, in vivo, Cmax). Further, the time of peak concentration (Tmax) in series [2] (male, human, in vivo) worked out at 2.8 ± 1.9 h; in series [2] (male, human, in vivo, Tmax) it was 4 ± 1.4 h. Besides, the results for the AUC/Dose in series [2] (setting [11]) and in series [2] (setting [12]) were 221.2 ± 34.0 (ng h/mL)/mg and 282.7 ± 59.1 (ng h/mL)/mg, respectively. In addition, the detection in urine result in series [1] was “not in urine”.

Take `O=C(O)c1ccc(O)c(O)c1` [Protocatechuic acid, protocatechuic acid]: the detection in plasma entry in series [2] (setting [4]) was “detected in plasma”. The results for the AUC in series [2] (setting [5]) and in series [2] (setting [8]) were 141 ± 73.9 ng·h/mL and 109 ± 5.4 ng·h/mL, respectively. Besides, the Cmax in series [2] (setting [6]) amounted to 30.8 ± 13.3 ng/mL; in series [2] (setting [9]), 34.5 ± 18 ng/mL. Further, the time of peak concentration (Tmax) in series [2] (setting [7]) stood at 3.5 ± 2 h; in series [2] (setting [10]), 3.7 ± 1.7 h. In series [2] (mango flesh compared with juice), the “greater absorption from mango flesh” value is 49%. Besides, the figures for the AUC/Dose in series [2] (setting [11]) and in series [2] (setting [12]) were 344.8 ± 138.3 (ng h/mL)/mg and 204.90 ± 9.9 (ng h/mL)/mg, respectively. Also, the detection in urine result in series [1] is “not in urine”.
